Data set [1] can be described thus: Vero cell viability, MTT test, 72 h. Format: cell-based, African green monkey. The conditions noted are these: African green monkey, Vero cells, MTT; for viability at 72 h, 0.39 µM: 0.39 µM/L; for viability at 72 h, 0.39 µM / viability at 72 h, 0.78 µM / viability at 72 h, 1.56 µM / viability at 72 h, 3.13 µM / viability at 72 h, 6.25 µM / viability at 72 h, 12.5 µM / viability at 72 h, 25 µM / viability at 72 h, 50 µM / viability at 72 h, 100 µM: Vero, 3 days, read-out: Viability % ±s.d.; for viability at 72 h, 0.78 µM: 0.78 µM/L; for viability at 72 h, 1.56 µM: 1.56 µM/L; for viability at 72 h, 3.13 µM: 3.13 µM/L; for viability at 72 h, 6.25 µM: 6.25 µM/L; for viability at 72 h, 12.5 µM: 12.50 µM/L; for viability at 72 h, 25 µM: 25 µM/L; for viability at 72 h, 50 µM: 50 µM/L; for viability at 72 h, 100 µM: 100 µM/L; for CC50 at 72 h: dissolved in PBS. The method, then:
(§1) Before testing antiviral activity, the effect of porphyrins dissolved in PBS and Pluronic F-127 on the viability of Vero cells was evaluated. Cells were incubated for 72 h using different concentrations of porphyrins (0.39–100 μM). Viability was assessed using the MTT test (Figure S13, Table S1, Supplementary Information). The viability of Vero cells depends on the porphyrins’ structure and formulation.
(§2) Cell viability was assessed by MTT reduction assay. Briefly, confluent monolayer Vero cells in 96-well plates (15000 cells/well) were incubated for 72 h with different concentrations of the compounds ranging from 0.39 µM to 100 µM in DMEM-1% FCS at 36.8 °C in 5% CO2 atmosphere. Next, cells were incubated for 1 h with 1.0 mg/mL of 3-(4,5-dimethylthiazol-2-y1)-2,5-diphenyltetrazolium bromide (MTT, PanEco, Moscow, Russia) at 36.8 °C, and then the solution was removed, and precipitated formazan was diluted in DMSO (PanEco, Moscow, Russia). The solution was read on a spectrophotometer at 540 nm. For each concentration, the average cell viability was calculated from the data of three experiments with three replicates each and was expressed as a percentage compared to the untreated cells (100%).
(§3) Table s1. Vero cell viability after exposure to 3a, 3b, TMEPyP compounds dissolved in PBS and Pluronic F-127. Different concen-
(§4) trations of compounds were applied to the cell monolayer and after incubation for 3 days, the number of living cells was calculated
(§5) in the MTT test. Each point represents the mean ± standard deviation of three experiments with […] each. n.d. –not done.
(§6) Compound Concentration, µM/L Viability % ±s.d.
A general note: Formazan colour is commonly taken as a measure of viable cells.

The subject of the next data set is Vero cells. As to the kind of experiment: Vero cell viability, MTT test, 72 h. Format: cell-based, African green monkey. The conditions noted are these: Vero cells; for CC50: Pluronic F-127 (F127) micellar formulation, MTT, 72 h. The method, then: as §1, §2, §3, §4, §5, §6
Data set [2] in a line: n-Octanol/PBS partition coefficient. Format: physicochemical. The conditions noted are these: 1-n-octanol/PBS, pH 7; read-out: LogP (LogPow, 1-n-octanol/water partition coefficient). How it is done:
The normalized UV-vis spectra, as well as the fluorescence spectra in DMSO and ethanol, are shown in Figures S1 and S2 (Supplementary Information). Fluorescence quantum yields were measured as compared with 5,10,15,20-tetrakisphenylporphyrin (TPP) (ΦF = 0.11) and ZnTPP (ΦF = 0.033). For free-base compounds 3a,b fluorescence quantum yields were similar at ca. 0.13 in DMSO and ca. 0.14, respectively. Octanol-water distribution coefficients were calculated using 1-n-octanol and phosphate-buffered saline (PBS), according to the method described in [53]. […] As expected, compound 3a was more hydrophilic (LogPow = −4.86) than 3b (LogPow = −4.6). Such an effect can be associated with the increase in the number of methylene spacers in compound 3b.
The distribution coefficient was measured using 1-n-octanol and phosphate buffered saline (PBS), which were presaturated with each other by the described method. […] The absorption of each layer was measured spectrophotometrically in the region of the Soret band. Partition coefficients were calculated as the ratio between absorption in the Soret band of photosensitizers in organic and aqueous phase and the dilution factors for the organic and aqueous layers, according to the aforementioned method.

Data set [3] in a line: Micelle size of Pluronic F-127 formulations by dynamic light scattering. Format: physicochemical. The conditions noted are these: Pluronic F-127 micelles, concentration 3·10^−6 M. How it is done:
The size of obtained micelles for the compounds 3a,b was determined by the dynamic light scattering (DLS) method. The micelle size for compounds 3a,b was 17.53 nm and 14.69 nm, respectively, at concentrations of 3·10^−6 M (Figure 4a,b). It has previously been reported that a similar micelle size increased the efficiency and circulation of the encapsulated drug in the blood due to the small scale, which avoided the capture of nanoparticles by the reticular endothelial system.
NMR (^1H and ^13C) spectra of the test solutions in CDCl3 or (CD3OD) were recorded on a Bruker MSL-300 pulse Fourier transform spectrometer (Bruker, Billerica, MA, USA) at frequencies of 300.3 and 75.49 MHz, respectively, with internal deuterium stabilization. Tetramethylsilane was used as an external standard. IR spectra (4000–500 cm^–1) were recorded on Infralyum FT 02 Fourier spectrometer (Lumex Instruments Research and Production Company, Moscow, Russia) with a resolution of 1 cm^−1. Samples were prepared as KBr tablets. Dynamic light scattering was measured using Malvern Zetasizer Nano ZS (Malvern, United Kingdom). […] Mass spectra were recorded using an 1100 LCMSD liquid chromatograph (Agilent Technologies, Santa Clara, CA, USA) equipped with a mass spectrometric chemical ionization detector at atmospheric pressure (HIAD, APCI, ESI) and with a UV spectrophotometric detector (DAD). […]

Where two headings read alike, the source gives them in different places.

In the case of `C[n+]1ccc(-c2c3nc(c(-c4cc[n+](C)cc4)c4ccc([nH]4)c(-c4cc[n+](C)cc4)c4nc(c(-c5cc[n+](C)cc5)c5ccc2[nH]5)C=C4)C=C3)cc1` [TMePyP, 5,10,15,20-tetrakis(1-methyl-4-pyridinio)porphyrin tetraiodide, reference compound], in data set [1] (+F127 (Pluronic F-127)), the viability (usually a read-out of living cells in per cent, often relative to untreated cells) at 72 h, 0.39 µM stood at 82.9 ± 5.4%; the viability at 72 h, 0.78 µM came out at 79.9 ± 2.3%; the viability at 72 h, 1.56 µM is 90.2 ± 9.7%; the viability at 72 h, 3.13 µM stood at 95.2 ± 6%. Besides, in data set [1] (+F127 (Pluronic F-127)), the viability at 72 h, 6.25 µM stood at 90.4 ± 2.7%; the viability at 72 h, 12.5 µM amounted to 83 ± 8.6%; the viability at 72 h, 25 µM turned out to be 95.2 ± 3.2%; the viability at 72 h, 50 µM was 114 ± 6.2%. Also, in data set [1] (+F127 (Pluronic F-127)), the viability at 72 h, 100 µM is 104 ± 1.2%. In data set [1] (-F127 (PBS)), the viability at 72 h, 3.13 µM is 101 ± 5%; the viability at 72 h, 6.25 µM is 98.5 ± 5%; the viability at 72 h, 12.5 µM was 97.4 ± 4.6%; the viability at 72 h, 25 µM worked out at 95.3 ± 5.3%. In addition, in data set [1] (-F127 (PBS)), the viability at 72 h, 50 µM amounted to 93.7 ± 5.5% and the viability at 72 h, 100 µM worked out at 89.6 ± 6.8%. Further, in data set [1], the CC50 (usually the concentration at which the toxic effect on the cells reaches its halfway point) at 72 h is over 100 µM. The CC50 in the data set on Vero cells is over 100 µM.
On to `O=C(CC[n+]1ccccc1)Oc1ccc(-c2c3nc(c(-c4ccc(OC(=O)CC[n+]5ccccc5)cc4)c4ccc([nH]4)c(-c4ccc(OC(=O)CC[n+]5ccccc5)cc4)c4nc(c(-c5ccc(OC(=O)CC[n+]6ccccc6)cc5)c5ccc2[nH]5)C=C4)C=C3)cc1` [3a], for which, in data set [1] (+F127 (Pluronic F-127)), the viability at 72 h, 0.39 µM was 93 ± 4.6%; the viability at 72 h, 0.78 µM worked out at 99.2 ± 4.2%; the viability at 72 h, 1.56 µM turned out to be 95.6 ± 4.2%; the viability at 72 h, 3.13 µM is 90.8 ± 2.3%. In data set [1] (+F127 (Pluronic F-127)), the viability at 72 h, 6.25 µM was found to be 90.3 ± 7.8%; the viability at 72 h, 12.5 µM was found to be 91.7 ± 2.8%; the viability at 72 h, 25 µM is 89.1 ± 4.1%; the viability at 72 h, 50 µM stood at 92.9 ± 2%. In addition, the viability at 72 h, 100 µM in data set [1] (+F127 (Pluronic F-127)) came out at 80.4 ± 1.8%. Besides, in data set [1] (-F127 (PBS)), the viability at 72 h, 0.39 µM was found to be 94.6 ± 2.9%; the viability at 72 h, 0.78 µM was 102 ± 4.2%; the viability at 72 h, 1.56 µM amounted to 108 ± 15.4%; the viability at 72 h, 3.13 µM worked out at 106 ± 4.5%. In addition, in data set [1] (-F127 (PBS)), the viability at 72 h, 6.25 µM came to 105 ± 8.7%; the viability at 72 h, 12.5 µM was 94.7 ± 5.1%; the viability at 72 h, 25 µM turned out to be 90.9 ± 10%; the viability at 72 h, 50 µM was 91.9 ± 2.2%. In data set [1] (-F127 (PBS)), the viability at 72 h, 100 µM came to 76.8 ± 6.9%. The compound also had a CC50 at 72 h in data set [1] of over 100 µM. The CC50 in the data set on Vero cells is over 100 µM. For the same compound, in the data set with Vero cells (used to choose concentrations for the virucidal test), the toxic concentration is over 100 µM. In addition, the logP in data set [2] was -4.86. Moreover, the “micelle size (DLS)” value in data set [3] is on record as 17.53 nm.

These data come from PMC7999199, “Novel Cationic Meso-Arylporphyrins and Their Antiviral Activity against HSV-1” (Pharmaceuticals, 2021).
